One molecule from article PMC12549899 (Nature Communications, 2025) can be followed below.

The assay deals with T1, DrOTOP1 G130W/E384A (Danio rerio, UniProt Q7ZWK8, E384A/G130W).
T1 construct: A previously generated codon-optimized full-length DrOTOP1[8]; (UniProt: Q7ZWK8) construct; expressed in transfected cells; host or cells: HEK-293 (CRL-1573, ATCC)
T1 sequence (Q7ZWK8 1-586 G130W/E384A): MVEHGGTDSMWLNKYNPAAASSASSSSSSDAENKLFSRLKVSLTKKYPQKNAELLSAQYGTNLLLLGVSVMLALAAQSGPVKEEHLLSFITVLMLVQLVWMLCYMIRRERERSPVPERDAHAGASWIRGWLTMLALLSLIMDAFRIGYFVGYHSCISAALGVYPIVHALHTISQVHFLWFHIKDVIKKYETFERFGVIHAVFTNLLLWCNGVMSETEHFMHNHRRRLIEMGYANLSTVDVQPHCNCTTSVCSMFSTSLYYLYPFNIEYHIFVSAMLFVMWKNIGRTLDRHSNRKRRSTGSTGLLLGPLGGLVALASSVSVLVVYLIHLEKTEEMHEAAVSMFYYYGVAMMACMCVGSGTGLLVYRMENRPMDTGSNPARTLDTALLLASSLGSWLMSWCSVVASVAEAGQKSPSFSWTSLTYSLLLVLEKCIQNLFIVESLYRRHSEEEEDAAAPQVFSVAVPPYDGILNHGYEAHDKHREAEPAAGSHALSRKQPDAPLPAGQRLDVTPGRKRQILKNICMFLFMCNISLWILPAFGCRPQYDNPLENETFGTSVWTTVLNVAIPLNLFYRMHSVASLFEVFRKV
Put plainly: Whole-cell patch-clamp, inhibition of acid-evoked currents, DrOTOP1 G130W/E384A. In kind it is cell-based, zebrafish (Danio rerio). As to the method:
Given our limited success in identifying mutations of the central site that disrupt antagonism by C2.2, we tested whether mutations of the central site in a background of G130W (the most impactful outer site mutation) might unmask contributions of this site. Thus, we generated and tested double mutants of G130W with E384A, A274W, and A388W. […] We also measured the dose-dependence of inhibition by C2.2 for both G130W/A388W and G130W/E384A (Fig. 5I, J). […] G130W was tested in parallel to confirm that 100 and 300 μM C2.2 produced dose-dependent inhibition.
HEK-293 cells (CRL-1573, ATCC) were cultured in DMEM (Thermofisher 11995073) containing 10% fetal bovine serum (Life Technology 16000044) and Penicillin-Streptomycin (100 I.U./mL) and (100 µg/mL), respectively. Cells were transfected with WT DrOTOP1 or mutant DrOTOP1 channels in 35 mm petri dishes, with ~ 500 ng DNA and 2 μL TransIT-LT1 transfection reagent (Mirus Bio Corporation, Cat # MIR2300) following the manufacturer’s protocol. All constructs were subcloned into a pcDNA3.1 vector that adds an N-terminal fusion tag consisting of an octahistidine tag followed by eGFP, a Gly-Thr-Gly-Thr linker and a 3C protease cleavage site ([…]) followed by WT DrOTOP1, WT mOTOP1, WT hOTOP1, or mutated DrOTOP1. Point mutations were generated via In-Fusion Cloning (Takara) using single-stranded DNA primers generated through IDT and sequence confirmed by Sanger sequencing (GeneWiz).
Whole-cell patch-clamp recording was performed as previously described[6],[22],[25]. Recordings were made with an Axopatch 200B amplifier, digitized with a Digidata 1322a 16-bit data acquisition system, acquired with pClamp 8.2 and analyzed with Clampfit 10 (Molecular Devices). Recordings were sampled at 5 kHz and filtered at 1 kHz. Patch Pipettes with resistance of […] were fabricated from borosilicate glass, and only recordings with a giga-Ohm seal were used in analysis. Membrane potential was held at −80 mV for the duration of recordings. At the beginning of recordings and between, cells were washed with Tyrode’s solution (see below). Once a giga-Ohm seal was reached, cells were lifted and placed in front of microcapillary tubes controlled by a Fast-Step perfusion system (Warner Instruments) so that extracellular solutions could be rapidly exchanged during each experiment.
Standard Tyrode’s solution consisted of 145 mM NaCl, 5 mM KCl, MgCl2, 2 mM CaCl2, 20 mM D-Glucose, and 10 mM HEPES (for pH 7.4). All other extracellular patch-clamp solutions contained 160 mM NMDG-Cl, 2 mM CaCl2, and the following buffers: 10 mM HEPES (for pH 7.4), 10 mM MES (for pH 6.5-5.5), 10 mM CHES for pH 10, and 10 mM HomoPIPES for (pH 5.0). pH adjusted with HCl. […]
All data are presented as mean ± SEM unless otherwise noted, and each data point represents an independent replicant. Inhibition of compounds was quantified as ((I2peak-I1)/(I2peak))*100, where I1 is the current immediately before wash-off and I2peak is the maximum recovered current (Supplementary Fig. 2). Hill coefficients were determined by the following equation: Y = Bmax*X^h/(Kd^h + X^h). Absolute IC50 was determined by the following equation: Fifty = (Top + Baseline)/2 Y = Bottom + (Top-Bottom)/(1 + ((Top-Bottom)/(Fifty-Bottom) − 1)*(AbsoluteIC50/X)^HillSlope). pH50 curves (Fig. 6G inset) were determined using the following equation: Y = Bottom + (Top-Bottom)/(1 + (EC/X)^HillSlope) where EC = EC50 control. […]
(The patch-clamp technique gives a direct electrical read-out from membranes.)

Under “10 µM, DrOTOP1 G130W/E384A, single cells or mean”, `C=C(C)COc1ccccc1NC(=O)c1nc[nH]c1C` [C2.2] yielded an inhibition at 10 µM of 3.23%. Besides, the inhibition at 300 µM (DrOTOP1 G130W/E384A, saturated by 100 µM, no further inhibition at 300 µM, read-out: Maximal inhibition (saturation)) is around 50%. Under “G130W/E384A, best-fit value”, the HillSlope is on record as 2.538 and the LogAbsoluteIC50 was determined as 1.644. In addition, the IC50 (G130W/E384A, best-fit value, Top fitted, Bottom = 0, read-out: AbsoluteIC50) was 44.1 µM.
